# According to US10016358B2 (ROLF KULLGREN AB, priority 2008, dated 2018):
# Where a name gives a salt, the structure may show the parent alone.
# Assays:
# Assay type in all cases: cell-based
# C. albicans = experiment: Fungicidal effect of lactate compared with HCl at identical pH (FIG. 1); conditions: 5% solution at pH 3.8; incubation at 37 C for two hours; control 1,000,000CFU
# C.albicans ATCC 64549 = experiment: Minimum microbicidal concentration of lactate (microbicidal assay); conditions: for killed: after 2.5 h of incubation; for Remaining viability: 2.5 h at 37° C.
# Experimental: (§1) E.coli O6K5 (a urinary tract infection pathogen), a group B Streptococcus strain (GBS) CCUG 49086, and C.albicans ATCC 64549, The microorganisms were incubated over night in BHI medium. Thereafter the suspensions were transferred to new tubes and incubated for 2.5 h at 37° C. The cells were washed and suspended in diluted BHI ( 1/100, BHIdll). The suspensions were measured spectrophotometrically at 590 nm and the concentrations of the microrganisms adjusted according to standard curves. The bacterial suspensions were adjusted to 2×10^8CFU per ml and C.albicans
# (§2) One lactate suppository was dissolved in 0.5 ml of distilled water. A lactate solution of 11.5% was obtained. This solution was used in the microbicidal assay.
# (§3) The lactate solution was serially diluted in BHIdll by twofold steps in tubes (100 μl piper tube). The bacterial and yeast cell solutions were added in 10 μl volumes to give a final concentration of approximately 2×10^7 and 1×10^5 cells per ml respectively. The tubes were incubated at 37° C. on a shaker for 2.5 h. Five ul were taken from each tube and added as a drop (in triplicate) onto a blood agar plate and incubated over night at 37° C. The killing was expressed as remaining colony forming units (CFU) in relation to the inoculum. The lower limit for detection of microorganisms was 200 CFU/ml. The viability of any remaining microorganism in the tubes was checked by diluting the remaining solutions to 1/5 with growth medium, resulting in a 2.3% lactate solution or less, and incubation of the tubes over night at 37 C. The next day, once again 5 μl of the solutions were applied as drops onto blood agar plates and incubated at 37° C. over night.
# E.coli O6K5 = experiment: as above; conditions: for Remaining viability: 2.5 h at 37° C.
# Experimental: as §1, §2, §3
# [1] = tested on: group B Streptococcus strain (GBS) CCUG 49086; experiment: as above; conditions: for Remaining viability: 2.5 h at 37° C.; for killed: after 2.5 h of incubation
# Experimental: as §1, §2, §3
structure (smiles),measurement,setting,value
"Cl [HCl, reference compound]",viable colony forming units of C. albicans,C. albicans,"100,000 CFU"
CC(O)C(=O)O (stereo not shown) [lactate],viable colony forming units of C. albicans,C. albicans,< 100 CFU
same,killed,C.albicans ATCC 64549; 5.8% of lactate,99.4%
same,killed,C.albicans ATCC 64549; 11.5% of lactate,100%
same,lactate concentration that effectively killed the pathogen,C.albicans ATCC 64549; 2.5 h incubation,≥ 5.8%
same,Remaining viability,C.albicans ATCC 64549; lactate concentration 0.35%,+ (no distinguishable colonies (>50 CFU per area = >10^4 CFU per ml))
same,Remaining viability,C.albicans ATCC 64549; lactate concentration 0.7%,+ (no distinguishable colonies (>50 CFU per area = >10^4 CFU per ml))
same,Remaining viability,C.albicans ATCC 64549; lactate concentration 1.4%,+ (no distinguishable colonies (>50 CFU per area = >10^4 CFU per ml))
same,Remaining viability,C.albicans ATCC 64549; lactate concentration 2.9%,+ (no distinguishable colonies (>50 CFU per area = >10^4 CFU per ml))
same,Remaining viability,C.albicans ATCC 64549; lactate concentration 5.8%,0.6 ± 0.4^¤ percentage of the inoculum
same,Remaining viability,C.albicans ATCC 64549; lactate concentration 11.5%,0
same,lactate concentration that effectively killed the pathogen,E.coli O6K5; 2.5 h incubation,≥ 5.8%
same,Remaining viability,E.coli O6K5; lactate concentration 0.35%,0
same,Remaining viability,E.coli O6K5; lactate concentration 0.7%,0
same,Remaining viability,E.coli O6K5; lactate concentration 1.4%,0
same,Remaining viability,E.coli O6K5; lactate concentration 2.9%,0
same,Remaining viability,E.coli O6K5; lactate concentration 5.8%,0
same,Remaining viability,E.coli O6K5; lactate concentration 11.5%,0
same,killed,"E.coli O6K5; lowest concentration of lactate tested (0.35%), after 2.5 h of incubation",100%
same,lactate concentration that effectively killed the pathogen,[1]; 2.5 h incubation,≥ 5.8%
same,Remaining viability,[1]; lactate concentration 0.35%,+ (no distinguishable colonies (>50 CFU per area = >10^4 CFU per ml))
same,Remaining viability,[1]; lactate concentration 0.7%,+ (no distinguishable colonies (>50 CFU per area = >10^4 CFU per ml))
same,Remaining viability,[1]; lactate concentration 1.4%,+ (no distinguishable colonies (>50 CFU per area = >10^4 CFU per ml))
same,Remaining viability,[1]; lactate concentration 2.9%,+ (no distinguishable colonies (>50 CFU per area = >10^4 CFU per ml))
same,Remaining viability,[1]; lactate concentration 5.8%,0
same,killed,[1]; lactate concentration 5.8%,100%
same,Remaining viability,[1]; lactate concentration 11.5%,0
same,killed,[1]; lactate concentration 11.5%,100%
